For 8 compounds, Activity results are on record in ChEMBL document CHEMBL6074708, “Advanced Delivery Systems and Novel Psilocin Derivatives for Enhanced Therapeutic Applications” (ACS Med Chem Lett, 2024).

The target of the test is 5-hydroxytryptamine receptor 2A (Homo sapiens) (UniProt P28223). Description: Displacement of [3H]ketanserin from human 5HT2A receptor expressed in HEK293 cells at 0 to 10000 nM preincubated with compound for 30 mins followed by [3H]ketanserin addition and measured after 60 mins by microBeta scintillation counter relative to psilocin. It is filed as cell-based. To be noted: dose 0-10000 nM, time 90.0 min. (Loss of bound radioactivity is the signal in a displacement assay; it reports binding, not function.)
Chain of 5-hydroxytryptamine receptor 2A (Homo sapiens) (P28223 whole entry): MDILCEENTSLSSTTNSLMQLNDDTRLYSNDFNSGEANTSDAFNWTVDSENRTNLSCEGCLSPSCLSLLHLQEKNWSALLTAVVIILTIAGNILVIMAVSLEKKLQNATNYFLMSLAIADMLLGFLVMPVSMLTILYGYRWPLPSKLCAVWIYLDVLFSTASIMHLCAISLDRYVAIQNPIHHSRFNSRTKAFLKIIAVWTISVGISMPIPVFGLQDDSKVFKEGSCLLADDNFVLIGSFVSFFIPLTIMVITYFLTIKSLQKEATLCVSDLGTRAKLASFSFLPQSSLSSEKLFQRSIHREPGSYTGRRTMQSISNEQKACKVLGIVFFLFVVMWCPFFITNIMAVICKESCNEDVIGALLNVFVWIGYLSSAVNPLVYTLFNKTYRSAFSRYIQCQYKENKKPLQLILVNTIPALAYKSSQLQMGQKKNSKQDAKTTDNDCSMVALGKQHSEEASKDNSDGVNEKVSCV

With `CN(C)CCc1c[nH]c2cccc(OC(=O)c3ccccc3F)c12`, the Activity result was “Active; Same Activity Observed”.
Take `CN(C)CCc1c[nH]c2cccc(OC(=O)C(C)(C)C(=O)Oc3cccc4[nH]cc(CCN(C)C)c34)c12`: the Activity entry is given as “Active; Higher Activity Observed”.
To `CN(C)CCc1c[nH]c2cccc(OC(=O)CCC(=O)Oc3cccc4[nH]cc(CCN(C)C)c34)c12` belongs “Active; Higher Activity Observed”; to `CN(C)CCc1c[nH]c2cccc(OC(=O)CCCC(=O)Oc3cccc4[nH]cc(CCN(C)C)c34)c12`, “Active; Higher Activity Observed”; to `CN(C)CCc1c[nH]c2cccc(OC(=O)c3ccc(Br)cc3)c12`, “Active; Same Activity Observed”.
Then `CN(C)CCc1c[nH]c2cccc(OC(=O)c3cccc(C(=O)Oc4cccc5[nH]cc(CCN(C)C)c45)c3)c12`, with “Active; Higher Activity Observed”; and `CN(C)CCc1c[nH]c2cccc(OC(=O)[C@H]3C[C@@H]3C(=O)Oc3cccc4[nH]cc(CCN(C)C)c34)c12`, with “Active; Higher Activity Observed”.
On to `CN(C)CCc1c[nH]c2cccc(O)c12`, for which the Activity entry is on record as “Active; Same Activity Observed”.
